This data set in a line: Dynamic Vapor Sorption analysis. In kind it is physicochemical. The note with it: humidity range ~21-70% Relative Humidity, Material recrystallized from isopropanol. From the text: The results of the XRPD analysis are shown both in Table I above and in FIG. 2. Dynamic Vapor Sorption analysis of this same materials was also done. […] (2 moles of water per molecule of the Compound would be 6.15% water).

For the compound `C[C@@H]1CN(Cc2ccc(F)cc2)[C@@H](C)CN1C(=O)c1cc2c(C(=O)C(=O)N(C)C)cn(C)c2cc1Cl.Cl` [Compound, (2R-trans)-6-chloro-5-[[4-[(4-fluorophenyl)methyl]-2,5-dimethyl-1-piperazinyl]carbonyl]-N,N, 1-trimethyl-alpha-oxo-1H-indole-3-acetamide monohydrochloride], the “water content (water weight gained)” value was 6-7%.

The record behind these values is US20070032506A1, “CRYSTALLINE FORMS OF (2R-TRANS)-6-CHLORO-5[[4-[(4-FLUOROPHENYL)METHYL]-2,5-DIMETHYL-1-PIPERAZINYL]CARBONYL]-N,N, 1-TRIMETHYL-ALPHA-OXO-1H-INDOLE-3-ACETAMIDE MONOHYDROCHLORIDE” (priority 2005, published 2007).
